Measured values reported in PMC12191924, “A new naphthalene-based fluorogenic substrate for cytochrome P450 4A11” (Biochemical Journal, 2025).

Molecular target: T1, CYP2C8 (Homo sapiens, UniProt P10632)
T1 construct: purchased Gentest (Huntsville, AL), now a part of Discovery Life Sciences lot 81760; host or cells: insect cells, recombinant baculovirus
T1 sequence (P10632 1-490): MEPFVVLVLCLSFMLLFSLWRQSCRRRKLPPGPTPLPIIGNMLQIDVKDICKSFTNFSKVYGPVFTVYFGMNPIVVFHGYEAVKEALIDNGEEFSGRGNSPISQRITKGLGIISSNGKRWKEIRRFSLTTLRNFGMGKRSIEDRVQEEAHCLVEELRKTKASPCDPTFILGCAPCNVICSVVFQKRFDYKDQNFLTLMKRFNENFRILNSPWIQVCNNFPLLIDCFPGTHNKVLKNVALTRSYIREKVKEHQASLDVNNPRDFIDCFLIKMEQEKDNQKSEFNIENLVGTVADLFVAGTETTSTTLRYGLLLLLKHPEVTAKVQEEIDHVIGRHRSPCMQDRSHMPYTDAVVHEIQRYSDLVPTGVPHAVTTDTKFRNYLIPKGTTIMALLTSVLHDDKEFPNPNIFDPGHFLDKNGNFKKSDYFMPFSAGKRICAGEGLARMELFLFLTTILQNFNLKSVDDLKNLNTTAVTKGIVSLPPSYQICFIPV
Assay: MONACRA demethylation by recombinant CYP2C8 in Supersomes, high-throughput fluorimetric assay
Type: biochemical
Protocol: Based on these observations, we developed a high-throughput automated assay applicable for studying SSPs of MONACRA metabolism by microsomal P450 enzymes. In this procedure, the incubation mixtures containing an NADPH-generating system and various substrate concentrations are placed in a multiwell plate and preincubated at 30°C in a thermostated shaker. The reaction is started by adding microsomal suspension to the final concentration of 0.3–1 mg/ml of microsomal protein or 0.02–0.1 µM of recombinant P450 enzymes in Supersomes. Following the incubation for 20 min at 30°C, the reaction is quenched by adding trichloroacetic acid (final concentration […]). After supplementing the wells with Na-glycine buffer (pH 10.4, final concentration 2.1 M), the plates are subjected to scanning the fluorescence spectra with excitation at 375 nm. This assay, which is described in detail in Materials and Methods, allows reliable detection of the concentrations of HONACRA as low as 0.1 µM.
We used the high-throughput activity assay described above to probe MONACRA metabolism by 16 human microsomal P450 enzymes, namely CYP1A2, CYP2A6, CYP2B6, CYP2C8, CYP2C9, CYP2C19, CYP2D6, CYP2E1, CYP2J2, CYP3A4, CYP3A5, CYP4A11, CYP4F2, CYP4F3A, CYP4F3B, and CYP4F12. […]

- rate of MONACRA metabolism by CYP2C8: negligibly small
SMILES: COc1ccc2cc(C=CC(=O)O)ccc2c1 [MONACRA, 3-(6-methoxynaphthalen-2-yl)acrylic acid]
